What all share (assay type): in vivo, Sprague-Dawley rats
What all share (conditions): 5% DSS in drinking water for 9 days then 2% for 18 days, feces

For one data set, the system named is Enterococci. Nature of the data set: fecal Enterococci count in rats. How it is done:
(§1) The animal experiment was conducted as follows: Male Sprague-Dawley rats (n=32) aged 10 months were randomly distributed into 4 experimental groups (described below). During an 8 days acclimatization period, rats had free access to tap water and received a control diet or diets supplemented in amino acids as described below. After this adaptation period, Dextran Sulfate Sodium (DSS)-treated rats received 5% DSS (w/v) in their drinking water for the first 9 days of the experiment and 2% DSS for the following 18 days to induce a chronic colitis.
(§2) ii) Group “DSS”: rats were fed ad libitum with the control diet. They received DSS (free access) dissolved in their drinking water as previously described.
(§3) At the end of the experiment, fecal samples were collected from animals with a sterile spoon into sterile tubes, frozen (liquid nitrogen) in 10% glycerol and then stored at −80° C. until analysis. The fecal microbiota was analyzed quantitatively for Enterobacteria, Bacteroides, Enterococci, Lactobacilli and Bifidobacteria species according to standard methods. Bacteria were counted using selective or semi-selective media. The counts were expressed as log (base 10) cfu/g feces with a lower detection limit of 3.30 log cfu/g and 5.50 log cfu/g of feces for Bacteroides.
(§4) Data are expressed as mean±SEM. […]

A further data set relates to Bacteroides. As to the kind of experiment: fecal Bacteroides count in rats. How it is done:
as §1, §2, §3, §4

Another data set has as its system Lactobacilli. Nature of the data set: fecal Lactobacilli count in rats. How it is done: as §1, §2, §3, §4
Another data set has as its system Enterobacteria. Nature of the data set: fecal Enterobacteria count in rats. How it is done: as §1, §2, §3, §4

Regarding Dextran Sulfate Sodium [DSS], the “Enterococci counts compared to controls” value in the data set on Enterococci is “significantly decreased”. In addition, the “Bacteroides counts compared to controls” value in the data set on Bacteroides is on record as “increased”. For the same substance, the “Lactobacilli counts compared to controls” value in the data set on Lactobacilli was “significantly decreased”. Further, the “Enterobacteria counts compared to controls” value with Enterobacteria is on record as “significantly decreased”.

These data come from US20180153842A1, “AMINO ACID SUPPLEMENTATION FOR A HEALTHY MICROBIOTA ECOSYSTEM” (NESTEC S.A., priority 2003, published 2018).
